Results reported in patent US20220142165A1 (priority 2019, published 2022).

How the values were obtained:
[1] = tested on: grape downy mildew pathogen (Plasmopara viticola); test: Grape downy mildew control test (Test Example 2); type: in vivo; settings: Plasmopara viticola, foliar, 168 h; 100 ppm by mass, sprayed on grape leaf disc (variety Chardonnay) before inoculation; blotch area ratio seven days after inoculation, 20° C.
Procedure: 5 parts by mass of the compound according to the present invention, 93.5 parts by mass of dimethylformamide, and 1.5 parts by mass of polyoxyethylene alkylaryl ether were mixed and dissolved to prepare an emulsion (I) containing 5% by mass of an active ingredient.
The control value was calculated according to the following formula.
Control value (%)=100−{blotch area ratio in treated area/blotch area ratio in untreated area}×100
Water was added to the emulsion (I) such that the concentration of the heterocyclic compound became 100 ppm by mass, and then the heterocyclic compound was dissolved therein to obtain a pharmaceutical solution. Then, the pharmaceutical solution was sprayed on a leaf disc of grape (variety “Chardonnay”) placed on agar in a 6-well plate. After air-drying, the leaf disc on which the pharmaceutical solution was sprayed was inoculated with zoosporangia of grape downy mildew pathogen (Plasmopara viticola) in a suspension by spraying the suspension thereon (treated area). As a control, a leaf disc on which no pharmaceutical solution was sprayed was inoculated in the same way as mentioned above (untreated area). The resultant leaf discs were left in a moist chamber at 20° C. Seven days after inoculation, the grape leaf discs were visually observed to measure the blotch area ratio to calculate the control value.

[2] = tested on: tomato late blight pathogen (Phylophihora infeslans); test: whole plant or invertebrate; type: in vivo; settings: Phytophthora infestans, 96 h, read-out: Control value

SMILES | melting point | pest or weed control at 100 ppm [1] | pest or weed control at 125 ppm [2]
CO/N=C/c1cc(C(Oc2cc(Br)c3nc(C)sc3c2)c2nnco2)ncc1F (stereo not drawn) [b-42] | 70 to 75 °C | ≥ 75% | ≥ 75%
CCc1cc(OC(c2cc(/C=N/OC)c(F)cn2)c2nnco2)cc2scnc12 (stereo not drawn) [b-44] | 114 to 117 °C | ≥ 75% | ≥ 75%
CO/N=C/c1cc(C(Oc2cc(F)c3ncsc3c2)c2nnco2)ncc1F (stereo not drawn) [b-45] | 137 to 139 °C | ≥ 75% | ≥ 75%
CCc1cc(OC(c2cc(/C=N/OC)c(F)cn2)c2nnco2)cc2sc(C)nc12 (stereo not drawn) [b-46] | 145 to 147 °C | ≥ 75% | ≥ 75%
CO/N=C/c1cc(C(Oc2cc(C)c3nc(C)sc3c2)c2nnco2)ncc1F (stereo not drawn) [b-47] | 151 to 154 °C | ≥ 75% | ≥ 75%
C=Cc1cc(OC(c2cc(/C=N/OC)c(F)cn2)c2nnco2)cc2sc(C)nc12 (stereo not drawn) [b-48] | 116 to 119 °C | ≥ 75% | ≥ 75%
Fc1cnc(C(Oc2ccc3ncsc3c2)c2nnco2)cc1/C=N/OCC1CC1 (stereo not drawn) [b-50] | 129 to 131 °C | ≥ 75% | ≥ 75%
CO/N=C/c1cc(C(Oc2cc(Cl)c3ncsc3c2)c2nnco2)ncc1F (stereo not drawn) [b-55] | 153 to 154 °C | ≥ 75% | ≥ 75%
CO/N=C/c1cc(C(Oc2cc3scnc3cc2F)c2nnco2)ncc1F (stereo not drawn) [b-57] | 150 to 151 °C | ≥ 75% | ≥ 75%
CO/N=C/c1cc(C(Oc2ccc3nnsc3c2)c2nnco2)ncc1F (stereo not drawn) [b-58] | 134 to 135 °C | ≥ 75% | ≥ 75%
C=Cc1nc2ccc(OC(c3cc(/C=N/OC)c(F)cn3)c3nnco3)cc2s1 (stereo not drawn) [b-63] | 88 to 89 °C | ≥ 75% | ≥ 75%
CO/N=C/c1cc(C(Oc2ccc3nc(CF)sc3c2)c2nnco2)ncc1F (stereo not drawn) [b-66] | 133 to 134 °C | ≥ 75% | ≥ 75%
CNc1nc2ccc(OC(c3cc(/C=N/OC)c(F)cn3)c3nnco3)cc2s1 (stereo not drawn) [b-74] | 181 to 182 °C | ≥ 75% | ≥ 75%
CO/N=C/c1cc(C(Oc2ccc3nc(C4CC4)sc3c2)c2nnco2)ncc1F (stereo not drawn) [b-76] | 103 to 104 °C | ≥ 75% | ≥ 75%
CO/N=C/c1cc(C(Oc2cc(OC)c3ncsc3c2)c2nnco2)ncc1F (stereo not drawn) [b-84] | 103 to 104 °C | ≥ 75% | ≥ 75%
CCc1cc(OC(c2cc(/C=N/OCCOC)c(F)cn2)c2nnco2)cc2sc(C)nc12 (stereo not drawn) [b-87] | 138 to 139 °C | ≥ 75% | ≥ 75%
